Reference: article PMC2694132 (Cancer research, 2009)

Assays:
[1] = cited from earlier work; for apparent terminal half-life: patients treated with SAHA; for serum level relative to the parent compound (higher, on average): serum from patients treated with SAHA
[2] = molecular target: T1, UGT1A8*3 (UGT1A8p.Cys277Tyr) (Homo sapiens, UniProt Q9HAW9, C277Y); experiment: Glucuronidation, UGT1A8*3 variant cell homogenate; format: in vitro ADME; conditions: data not shown
T1 sequence (Q9HAW9 26-530 C277Y): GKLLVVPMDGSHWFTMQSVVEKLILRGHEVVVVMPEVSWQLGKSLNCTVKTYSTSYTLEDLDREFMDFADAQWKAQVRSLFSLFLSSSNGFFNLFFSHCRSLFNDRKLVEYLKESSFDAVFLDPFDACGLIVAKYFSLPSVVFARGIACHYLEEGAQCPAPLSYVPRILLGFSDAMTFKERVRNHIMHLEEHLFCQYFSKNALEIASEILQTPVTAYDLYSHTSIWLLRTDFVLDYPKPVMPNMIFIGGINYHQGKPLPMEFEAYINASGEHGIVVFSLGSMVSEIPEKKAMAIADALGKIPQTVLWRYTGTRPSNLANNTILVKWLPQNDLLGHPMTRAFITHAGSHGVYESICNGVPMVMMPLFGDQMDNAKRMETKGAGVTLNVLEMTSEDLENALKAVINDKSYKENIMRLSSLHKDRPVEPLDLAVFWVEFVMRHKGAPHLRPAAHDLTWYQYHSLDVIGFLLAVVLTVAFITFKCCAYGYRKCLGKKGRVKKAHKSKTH

| glucuronidation activity against 4-methylumbelliferone [2] | Compound | apparent terminal half-life [1] | serum level relative to the parent compound (higher, on average) [1] |
| --- | --- | --- | --- |
|  | O=C(O)CCC(=O)Nc1ccccc1 [4-anilino-4-oxobutanoic acid] | 6 to 9 h | 10- to 13 fold |
| detectable levels of activity | Cc1cc(=O)oc2cc(O)ccc12 [4-methylumbellifer-one] |  |  |
|  | O=C(CCCCCCC(=O)Nc1ccccc1)NO[C@@H]1O[C@H](C(=O)O)[C@@H](O)[C@H](O)[C@H]1O [SAHA-glucuronide] | ~ 1.8 hours | 3- to 4 fold |
